Measured values taken from patent US10022354B2, “Pyrrolidine amide compounds as histone demethylase inhibitors” (GENENTECH, INC., priority 2014, dated 2018).
pIC50: −log10 of the molar value.

Molecular target: full length KDM5A enzyme (Homo sapiens (Human), UniProt P29375)
Test: KDM5 Enzyme Assay (KDM5A HTRF)
Type: biochemical
Details: 2 nM full length KDM5A, 100 nM H3K4Me3 peptide, 1 uM 2-OG, 30 min room temperature
Experimental: Full length KDM5A enzyme was expressed and purified inhouse. Biotin-H3K4me3 peptide was purchased from New England Biolabs. HTRF reagents (containing Eu-labeled H3K4me1-2 antibody, and streptavidin-XL665) were purchased from Cis-Bio International. Plates were read on an Envision multi-label plate reader (Perkin Elmer).
The HTRF assay mixture contained 2 nM full length KDM5A enzyme, 100 nM H3K4Me3 peptide substrate, 1 uM 2-OG, 100 uM Fe^2+, 500 uM ascorbate. 50 mM HEPES pH 7.0 buffer, 0.01% Triton-X 100, 2 mM DTT, 0.25% DMSO at a final volume of 10 uL.
The plates were incubated at room temperature for 60 minutes and then read in the Envision plate reader.

full length KDM5A enzyme, sequence (P29375 whole entry): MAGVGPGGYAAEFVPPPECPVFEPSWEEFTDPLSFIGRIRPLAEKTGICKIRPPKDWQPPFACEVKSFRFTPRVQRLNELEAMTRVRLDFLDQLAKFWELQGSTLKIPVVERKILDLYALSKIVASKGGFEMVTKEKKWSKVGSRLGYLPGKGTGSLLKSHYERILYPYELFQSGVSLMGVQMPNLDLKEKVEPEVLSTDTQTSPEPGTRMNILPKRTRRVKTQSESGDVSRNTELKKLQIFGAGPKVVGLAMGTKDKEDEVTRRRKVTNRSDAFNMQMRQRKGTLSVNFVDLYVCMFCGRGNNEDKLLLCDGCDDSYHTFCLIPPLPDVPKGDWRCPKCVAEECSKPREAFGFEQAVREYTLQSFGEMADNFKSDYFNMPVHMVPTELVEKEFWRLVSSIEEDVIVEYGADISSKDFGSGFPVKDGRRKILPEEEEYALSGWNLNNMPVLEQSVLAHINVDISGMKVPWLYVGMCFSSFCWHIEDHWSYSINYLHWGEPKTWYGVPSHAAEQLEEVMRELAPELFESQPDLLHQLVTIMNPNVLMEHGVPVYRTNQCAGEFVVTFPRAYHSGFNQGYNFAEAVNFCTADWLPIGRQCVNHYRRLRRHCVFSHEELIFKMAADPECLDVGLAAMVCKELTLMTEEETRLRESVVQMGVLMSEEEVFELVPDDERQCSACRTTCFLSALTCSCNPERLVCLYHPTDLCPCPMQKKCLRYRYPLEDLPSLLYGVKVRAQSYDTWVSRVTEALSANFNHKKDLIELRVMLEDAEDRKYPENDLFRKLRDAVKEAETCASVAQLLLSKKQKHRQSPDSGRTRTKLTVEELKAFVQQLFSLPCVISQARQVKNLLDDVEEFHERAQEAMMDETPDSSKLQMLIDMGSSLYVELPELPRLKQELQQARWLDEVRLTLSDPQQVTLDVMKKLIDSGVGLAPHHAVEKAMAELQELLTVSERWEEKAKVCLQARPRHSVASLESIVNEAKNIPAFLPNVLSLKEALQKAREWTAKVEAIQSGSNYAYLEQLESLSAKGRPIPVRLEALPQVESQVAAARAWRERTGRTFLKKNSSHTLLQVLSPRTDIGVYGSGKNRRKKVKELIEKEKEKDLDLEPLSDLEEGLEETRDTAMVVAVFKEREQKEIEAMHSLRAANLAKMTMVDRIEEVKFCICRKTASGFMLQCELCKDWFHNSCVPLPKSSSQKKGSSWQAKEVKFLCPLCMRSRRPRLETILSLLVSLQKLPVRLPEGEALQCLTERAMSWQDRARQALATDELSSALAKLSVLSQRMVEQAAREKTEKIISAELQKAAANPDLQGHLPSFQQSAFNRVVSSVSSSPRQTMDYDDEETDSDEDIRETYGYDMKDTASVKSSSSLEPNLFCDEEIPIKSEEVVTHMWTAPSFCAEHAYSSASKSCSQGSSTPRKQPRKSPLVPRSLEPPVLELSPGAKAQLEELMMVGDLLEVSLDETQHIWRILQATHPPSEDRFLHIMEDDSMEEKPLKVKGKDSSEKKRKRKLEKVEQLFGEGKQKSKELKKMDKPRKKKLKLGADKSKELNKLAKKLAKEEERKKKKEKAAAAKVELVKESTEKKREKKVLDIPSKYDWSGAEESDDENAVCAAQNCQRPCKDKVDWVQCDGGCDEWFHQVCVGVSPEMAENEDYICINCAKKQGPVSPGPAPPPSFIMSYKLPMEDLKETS

Structure (SMILES) | pIC50
CC1CC(C(=O)NC2CCN(C(=O)c3cc(C(C)C)n[nH]3)C2)C1 (stereo not drawn) [Example 131] | 9.08
Cc1cc(NS(=O)(=O)c2ccccc2)cc(C2CCN(C(=O)c3cc(C(C)C)n[nH]3)C2)n1 (stereo not drawn) [Example 57] | 7.77
Cc1cc(-c2cnn(CCC#N)c2)cc(C2CCN(C(=O)c3cc(C(C)C)n[nH]3)C2)n1 (stereo not drawn) [Example 98] | 9.49
Cc1cc(-c2cnn(C(F)F)c2)cc(C2CCN(C(=O)c3cc(C(C)C)n[nH]3)C2)n1 (stereo not drawn) [Example 76] | 8.77
CC(C)c1cc(C(=O)N2CCC(NC(=O)c3ccccc3OC(F)(F)F)C2)[nH]n1 (stereo not drawn) [Example 142] | 8.82
Cc1cc(-c2cnn(C(C)C)c2)cc(C2CCN(C(=O)c3cc(C(C)C)n[nH]3)C2)n1 (stereo not drawn) [Example 97] | 9.30
Cc1cc(-c2ccsc2)cc(C2CCN(C(=O)c3cc(C(C)C)n[nH]3)C2)n1 (stereo not drawn) [Example 74] | 9.66
Cc1cc(-c2ccccc2C)cc(C2CCN(C(=O)c3cc(C(C)C)n[nH]3)C2)n1 (stereo not drawn) [Example 66] | 9.60
CC(C)c1cc(C(=O)N2CCC(N3CCc4ccccc4C3=O)C2)[nH]n1 (stereo not drawn) [Example 202] | 8.82
CCC(C)c1cc(C(=O)N2CC[C@@H](NC(=O)[C@H]3C[C@H]3F)C2)[nH]n1 (stereo partly drawn) [Example 189] | 10.42
Cc1cc(-c2ccccn2)cc(C2CCN(C(=O)c3cc(C(C)C)n[nH]3)C2)n1 (stereo not drawn) [Example 6, (3-isopropyl-1H-pyrazol-5-yl)(3-(6′-methyl-[2,4′-bipyridin]-2′-yl)pyrrolidin-1-yl)methanone] | 9.00
CC(C)c1cc(C(=O)N2CCC(NC(=O)C3CCCOC3)C2)[nH]n1 (stereo not drawn) [Example 166] | 9.28
Cc1cc(-c2ccc(C#N)cc2)cc(C2CCN(C(=O)c3cc(C(C)C)n[nH]3)C2)n1 (stereo not drawn) [Example 68] | 9.54
CC(C)c1cc(C(=O)N2CCC(NC(=O)c3ccc(F)cc3)C2)[nH]n1 (stereo not drawn) [Example 157] | 9.70
CC(C)c1cc(C(=O)N2CCC(n3cc(N)cn3)C2)[nH]n1 (stereo not drawn) [Example 38, (3-(4-amino-1H-pyrazol-1-yl)pyrrolidin-1-yl)(3-isopropyl-1H-pyrazol-5-yl)methanone] | 8.74
Nc1cc(C(=O)N2CCC(NC(=O)C3CC3)C2)[nH]n1 (stereo not drawn) [Example 209] | 7.77

Structure (SMILES) | pIC50
COC(=O)c1cc(C)nc(C2CCN(C(=O)c3cc(C(C)C)n[nH]3)C2)c1 (stereo not drawn) [Example 4, Methyl 2-(1-(3-isopropyl-1H-pyrazole-5-carbonyl)pyrrolidin-3-yl)-6-methylisonicotinate] | 7.92
CC(=O)Nc1cc(C)nc(C2CCN(C(=O)c3cc(C(C)C)n[nH]3)C2)c1 (stereo not drawn) [Example 54] | 8.77
CC(c1ccccc1)c1cc(C(=O)N2CCC(NC(=O)C3CC3)C2)[nH]n1 (stereo not drawn) [Example 21, N-(1-(3-(1-phenylethyl)-1H-pyrazole-5-carbonyl)pyrrolidin-3-yl)cyclopropanecarboxamide] | 9.19
COC(=O)NC1CCN(C(=O)c2cc(C(C)C)n[nH]2)C1 (stereo not drawn) [Example 115] | 9.23
CC(C)c1cc(C(=O)N2CCC(n3ccccc3=O)C2)[nH]n1 (stereo not drawn) [Example 39, 1-(1-(3-Isopropyl-1H-pyrazole-5-carbonyl)pyrrolidin-3-yl)pyridin-2(1H)-one] | 8.92
CC(C)c1cc(C(=O)N2CCC(NC(=O)C3(c4ccncc4)CC3)C2)[nH]n1 (stereo not drawn) [Example 191] | 8.70
CC(C)c1cc(C(=O)N2CCC(NC(=O)c3ncccc3F)C2)n[nH]1 (stereo not drawn) [Example 200] | 9.60
CC(C)c1cc(C(=O)N2CCC(NC(=O)C3(Oc4ccccc4)CC3)C2)[nH]n1 (stereo not drawn) [Example 195] | 8.46
CCCc1cc(C(=O)N2CCC(c3cc(-c4cnn(C)c4)cc(C)n3)C2)[nH]n1 (stereo not drawn) [Example 46] | 9.27
CC(C)c1cc(C(=O)N2CC[C@H](NC(=O)[C@@H]3C[C@@H]3F)C2)[nH]n1 [Example 229] | 9.96
Cc1cc(-c2cnn(-c3ccccc3)c2)cc(C2CCN(C(=O)c3cc(C(C)C)n[nH]3)C2)n1 (stereo not drawn) [Example 92] | 9.52
CC(=O)NC1CCN(C(=O)c2cc(C(C)C)n[nH]2)C1 (stereo not drawn) [Example 27, N-(1-(3-isopropyl-1H-pyrazole-5-carbonyl)pyrrolidin-3-yl)acetamide] | 7.96
Cc1cc(-c2c[nH]nc2C)cc(C2CCN(C(=O)c3cc(C(C)C)n[nH]3)C2)n1 (stereo not drawn) [Example 99] | 9.89
CC(C)c1cc(C(=O)N2CCC(NC(=O)Oc3ccccc3)C2)[nH]n1 (stereo not drawn) [Example 116] | 8.68
CC(O)C(=O)NC1CCN(C(=O)c2cc(C(C)C)n[nH]2)C1 (stereo not drawn) [Example 170] | 8.80
CC(C)c1cc(C(=O)N2CCC(NC(=O)C3(C#N)CC3)C2)[nH]n1 (stereo not drawn) [Example 193] | 9.39

Other lines, results leading:

pIC50 | Structure (SMILES)
9.05 | CC(C)c1cc(C(=O)N2CCC(NC(=O)c3cnn(C)c3)C2)[nH]n1 (stereo not drawn) [Example 113]
8.80 | COc1ccc(C2CCN(C(=O)c3cc(C(C)C)n[nH]3)C2)nc1 (stereo not drawn) [Example 103]
9.72 | O=C(NC1CCN(C(=O)c2cc(C3CC3)n[nH]2)C1)C1CC1 (stereo not drawn) [Example 208]
9.57 | COc1ccc(C(=O)NC2CCN(C(=O)c3cc(C(C)C)n[nH]3)C2)cc1 (stereo not drawn) [Example 160]
9.04 | CC(C)c1cc(C(=O)N2CCC(n3ncc4c(F)cc(Br)cc43)C2)[nH]n1 (stereo not drawn) [Example 245]
10.28 | CC(C)c1cc(C(=O)N2CCC(NC(=O)c3ccc4cc[nH]c4c3)C2)[nH]n1 (stereo not drawn) [Example 120]
9.49 | Cc1nn(C2CCN(C(=O)c3cc(C(C)C)n[nH]3)C2)cc1-c1ccccc1 (stereo not drawn) [Example 236]
8.92 | CC(c1cc(C(=O)N2CCC(NC(=O)C3CC3)C2)[nH]n1)C(F)(F)F (stereo not drawn) [Example 24, N-(1-(3-(1,1,1-trifluoropropan-2-yl)-1H-pyrazole-5-carbonyl)pyrrolidin-3-yl) cyclopropanecarboxamide]
9.15 | CC(C)c1cc(C(=O)N2CCC(NC(=O)c3ccccc3Oc3ccccc3)C2)[nH]n1 (stereo not drawn) [Example 164]
9.03 | COCC(C)c1cc(C(=O)N2CCC(NC(=O)C3CC3)C2)[nH]n1 (stereo not drawn) [Example 25, N-(1-(3-(1-methoxypropan-2-yl)-1H-pyrazole-5-carbonyl)pyrrolidin-3-yl) cyclopropanecarboxamide]
8.60 | CC(C)c1cc(C(=O)N2CCC(NC(=O)c3ccncc3)C2)[nH]n1 (stereo not drawn) [Example 149]
9.48 | CC(C)c1cc(C(=O)N2CC[C@@H](NC(=O)[C@H]3C[C@@H]3F)C2)[nH]n1 [Example 231]
8.68 | CC(C)c1cc(C(=O)N2CCC(n3cc(Br)c(C#N)n3)C2)[nH]n1 (stereo not drawn) [Example 240]
9.38 | O=C(NC1CCN(C(=O)c2cc(C3CCCCC3)n[nH]2)C1)C1CC1 (stereo not drawn) [Example 207]
9.21 | Cc1ccc(-c2cc(C)nc(C3CCN(C(=O)c4cc(C(C)C)n[nH]4)C3)c2)cn1 (stereo not drawn) [Example 96]
8.05 | CC(C)c1cc(C(=O)N2CCC(N(C)C(=O)c3ccccc3)C2)[nH]n1 (stereo not drawn) [Example 147]
8.19 | CC(C)c1cc(C(=O)N2CCC(C(=O)Nc3ccccc3)C2)[nH]n1 (stereo not drawn) [Example 187]
8.18 | CC(=O)NC(C)c1cc(C(=O)N2CCC(NC(=O)C3CC3)C2)n[nH]1 (stereo not drawn) [Example 216]
9.57 | COc1ccc(-c2cc(C)nc(C3CCN(C(=O)c4cc(C(C)C)n[nH]4)C3)c2)cc1 (stereo not drawn) [Example 85]

pIC50 | Structure (SMILES)
8.96 | CC(C)c1cc(C(=O)N2CCC(NC(=O)c3cnccn3)C2)n[nH]1 (stereo not drawn) [Example 199]
9.24 | COCC1(C(=O)NC2CCN(C(=O)c3cc(C(C)C)n[nH]3)C2)CC1 (stereo not drawn) [Example 192]
9.68 | Cc1cc(-c2cn[nH]c2)cc(C2CCN(C(=O)c3cc(C(C)C)n[nH]3)C2)n1 (stereo not drawn) [Example 94]
8.92 | CC(C)c1cc(C(=O)N2CCC(NC(=O)C3(c4cccnc4)CC3)C2)n[nH]1 (stereo not drawn) [Example 184]
9.68 | CC(C)c1cc(C(=O)N2CCC(NC(=O)C3(c4ccccn4)CC3)C2)n[nH]1 (stereo not drawn) [Example 140]
9.12 | Cc1cc(-c2cnn(C)c2)nc(C2CCN(C(=O)c3cc(C(C)C)n[nH]3)C2)n1 (stereo not drawn) [Example 102]
8.01 | CC(C)c1cc(C(=O)N2CCC(c3ccncn3)C2)[nH]n1 (stereo not drawn) [Example 100]
7.82 | CC(C)c1cc(C(=O)N2CCC(C(=O)NCc3cnn(C)c3)C2)[nH]n1 (stereo not drawn) [Example 58]
9.12 | CC(C)c1cc(C(=O)N2CCC(NC(=O)c3cccnc3)C2)[nH]n1 (stereo not drawn) [Example 109]
9.66 | Cc1ccc(-c2cc(C)nc(C3CCN(C(=O)c4cc(C(C)C)n[nH]4)C3)c2)cc1 (stereo not drawn) [Example 3, (3-Isopropyl-1H-pyrazol-5-yl)(3-(6-methyl-4-(p-tolyl)pyridin-2-yl)pyrrolidin-1-yl) methanone]
9.96 | CCn1ccc(C(=O)NC2CCN(C(=O)c3cc(C(C)C)n[nH]3)C2)n1 (stereo not drawn) [Example 165]
9.40 | CC(C)c1cc(C(=O)N2CCC(NC(=O)CC3CC3)C2)[nH]n1 (stereo not drawn) [Example 175]
9.05 | CC(C)c1cc(C(=O)N2CCC(NC(=O)/C=C/c3ccccc3)C2)[nH]n1 (stereo not drawn) [Example 126]
10.43 | CCC(C)c1cc(C(=O)N2CC[C@@H](NC(=O)[C@@H]3C[C@@H]3F)C2)[nH]n1 (stereo partly drawn) [Example 190]
8.38 | CNC(=O)c1cc(C)nc(C2CCN(C(=O)c3cc(C(C)C)n[nH]3)C2)c1 (stereo not drawn) [Example 53]
9.89 | CC(C)c1cc(C(=O)N2CC[C@H](NC(=O)C3CC3)C2)[nH]n1 [Example 28, (S)—N-(1-(3-isopropyl-1H-pyrazole-5-carbonyl)pyrrolidin-3-yl)cyclopropanecarboxamide]
8.64 | Cc1ccc(C2CCN(C(=O)c3cc(C(C)C)n[nH]3)C2)nc1 (stereo not drawn) [Example 105]
9.12 | CC(C)c1cc(C(=O)N2CCC(NC(=O)c3ccc(Cl)cc3)C2)[nH]n1 (stereo not drawn) [Example 111]
